Results on nine compounds are retold here after US20170183318A1, “AMIDE COMPOUNDS, METHODS FOR PREPARATION, AND USE THEREOF AS AGENTS FOR THE TREATMENT AND PREVENTION OF DISEASES CAUSED BY RNA- AND/OR DNA-CONTAINING VIRUSES, AND CONCOMITANT DISEASES” (OBSCHESTVO S OGRANICHENNOI OTVETSTVENNOSTIYU …, priority 2014, published 2017).

The subject of test [1] is HCoV (antigenically similar to prototype strain OC-43). Nature of the test: Murine model of coronavirus infection (mortality). It is filed as in vivo. The conditions noted are these: Mus musculus, po, 336 h; HCoV intranasally, C57BL/6 mice; 30 mg/kg orally once daily for 5 days from 24 h after infection; 14 days; 20 mice per group; virus control 60.0. As for the experimental part:
In the study, author's strain HCoV was used, identified as group 2 virus antigenically similar to prototype strain OC-43. The efficiency of the compounds was studied in C57BL/6 mice by comparing mortality rates in the treated and control mice for 14 days after infection. Each experimental group comprised 20 mice. The animals were infected intranasally in a volume of 0.03 ml/mouse under brief ether anesthesia.
The studied compounds were administered to the animals orally at a dose of 30 mg/kg of body weight. The animals of the control group were administered physiological solution. Preparations were administered once daily for 5 days. The treatment of animals was started 24 hours after infection.

Test [2] is described as follows: Rat model of nasopharyngitis induced by formalin (nasal mucosa changes, cell elements in nasal lavage). It is filed as in vivo. The settings on record: Wistar rats, 18 mg/kg for 3 days; for Mucous membrane of nasal passages: Without changes (number of animals): number of animals out of n = 10, control 0 of 20; for Mucous membrane of nasal passages: Discharge mucus from the nasal passages (number of animals): number of animals out of n = 10, control 20 of 20. The procedure: Nasopharyngitis was induced by intranasal administration of formalin to each nasal passage of rats.
The administration of formalin to the nasal passages of rats leads to the dissemination of inflammation to adjacent tissues, resulting in a clinical pattern similar to the symptoms of nasopharyngitis in a human.
After an acclimatization period, the following groups were formed: • intact animals administered intragastrically a physiological solution in an amount of 0.2 ml, without induction of nasopharyngitis; • a control group consisted of animals administered intragastrically a physiological solution in an amount of 0.2 ml for 3 days after induction of nasopharyngitis; and • animals administered the studied compounds at a dose of 18 mg/kg for 3 days after induction of nasopharyngitis.
Clinical observation of each animal was performed every day at least twice daily.
The caused pathology was characterized by hyperplasia, increased number of caliciform cells, pronounced infiltration of mononuclear cells and leucocytes, and mucus hyperproduction by submucosal glands.
After euthanasia, the inflammation pattern in the nasal passages and throat was studied in each group of animals. The nasal passages were washed with 5 mL of physiological solution and the score of cell elements were counted in 1 μL.

The next test has as its system hRV. Nature of the test: Antiviral activity against rhinovirus in mice (infectious titer in lungs titrated in Hela cells; body and lung weight). It is filed as in vivo. The conditions noted are these: 30 mg/kg orally once daily for 4 days from 12 h after infection; lung suspension titrated in Hela cells. As for the experimental part:
In this study, author's strain of hRV was used. The animals were infected with the virus intranasally under brief ether anesthesia in a volume of 0.05 ml/mouse.
To determine the efficiency of the compounds against hRV in the experimental model in vivo, the virus was previously titrated in mice, then the mice were infected, and the studied compounds were administered orally. The infectious titer was assessed on day 4 after infection by titration of a lung suspension in Hela cell culture. The infectious titer of the hRV virus in the lugs of the experimental group was determined in comparison with that in the control group by TCID.
The studied compounds and placebo (physiological solution) were orally administered to the mice once daily for 4 days, starting 12 hours after infection. The compounds were administered at a dose of 30 mg/kg of animal body weight. Intact animals served as a negative control and were kept under the same conditions as the experimental animals in a separate room.
The antiviral activity of the studied compounds was determined on day 4 after infection by a reduction of the virus infectious activity determined in Hela cell culture.

A further test deals with Staphylococcus aureus. Nature of the test: Murine model of staphylococcal pneumonia (bacterial growth from lung imprints). Type of test: in vivo, outbred mice. The settings on record: 5 days before and 2 days after S. aureus infection, lung imprints on Columbia agar, control 82.5. The procedure: The efficiency of the compounds was evaluated in outbred mice (females) infected with Staphylococcus aureus (mouse-adapted strain). The administration of the compounds was started 5 days before infection, orally at doses of 15 and 30 mg/kg in a volume of 0.2 mL. On day 5, the mice were infected intranasally under brief ether anesthesia by administration of Staphylococcus aureus at a dose of 10^9 CFU in a volume of 0.05 mL. One hour after infection, the administration of the compounds to the mice was continued at the above-indicated doses for additional 2 days. The reference drug was ampicillin administered intravenously at a single dose of 20 mg/kg. The control was mice infected with Staphylococcus aureus intranasally and treated with PBS. The mice were sacrificed two days after, the breast was dissected, and lung imprints were made in Petri dishes with Columbia agar. After incubation for 24 hours at 30° C., the presence (or absence) of Staphylococcus aureus bacterial growth was fixed in comparison with the control. The intensity of bacterial growth was evaluated in scores and expressed in %.

The subject of test [3] is Sendai strain of parainfluenza virus. Nature of the test: Antiviral activity against parainfluenza virus in mice (mortality). It is filed as in vivo, white outbred mice. The settings on record: Mus musculus, po, 336 h, 10LD50 intranasally, 30 mg/kg orally once daily 24-120 h after infection, 14 days observation, 20 mice per group, virus control 75.0. As for the experimental part: In the study the Sendai strain of parainfluenza virus was used. White outbred mice weighing 10-12 g were infected intranasally with the Sendai strain of parainfluenza virus adapted to mouse lungs under brief ether anesthesia in a volume of 0.05 ml/mouse. The infectious dose of the virus that caused 70-80% mortality in mice was 10LD50. Each group used in the experiment comprised 20 animals. Intact animals served as control and were hold in a separate room under the same conditions as the experimental animals. The antiviral activity of the compounds of general formula I was studied by oral administration of the compounds to infected mice once daily at a dose of 30 mg/kg/mouse 24, 48, 72, 96, and 120 hours after infection of the animals with the virus. The mice of the control group were administered placebo (0.2 mL of physiological solution) under the same conditions. The animals were monitored for 14 days after infection by registration the mouse death in the groups.
Each animal was subjected to once-daily observation. The observation included the assessment of general behavior and body condition of animals. In days of administration of preparations, the observation was conducted before administration of a preparation in a certain time and about two hours after administration. The animals were handled according to the International Standards.
The activity of the compounds was evaluated by comparing mortality rates in the groups of animals administered a preparation and placebo.

`O=C(O)CCCC(=O)NCCC1CCCN1` (stereo not drawn) [Compound 2]: the results for the mortality at 30 mg/kg in test [1] and in test [3] were 30% and 35%, respectively. Moreover, the “Mucous membrane of nasal passages: Without changes (number of animals)” value in test [2] stood at 3. Moreover, the “Mucous membrane of nasal passages: Discharge mucus from the nasal passages (number of animals)” value in test [2] turned out to be 7. Moreover, the “Infectious titer of the virus in lungs lg TCID50 (4 days after infection)” value (“Infectious titer of the virus” below) in the test on hRV worked out at 0.1 ± 0.05 lg TCID50. For the same compound, the “Bacterial growth, in %” value is on record as 50 (sporadic colonies (up to 100)) in the test on Staphylococcus aureus (15 mg/kg orally) and 55% with Staphylococcus aureus (30 mg/kg orally).
Take `O=C(O)CCCC(=O)NCCC1CCCCN1` (stereo not drawn) [Compound 6]: the mortality at 30 mg/kg in test [1] came out at 35%; in test [3], 25%. Besides, in test [2], the “Mucous membrane of nasal passages: Without changes (number of animals)” value amounted to 4. Further, the “Mucous membrane of nasal passages: Discharge mucus from the nasal passages (number of animals)” value in test [2] is on record as 6. Moreover, the “Infectious titer of the virus” value with hRV came to 0.4 ± 0.15 lg TCID50. In addition, the “Bacterial growth, in %” value was 45% in the test on Staphylococcus aureus (15 mg/kg orally) and 55% in the test with Staphylococcus aureus (30 mg/kg orally).
Turning to `O=C(O)CCCC(=O)NCCCc1c[nH]cn1` [Compound 118], the mortality at 30 mg/kg was 40% in test [1] and 30% in test [3]. Also, the “Mucous membrane of nasal passages: Without changes (number of animals)” value in test [2] was found to be 5. In addition, the “Mucous membrane of nasal passages: Discharge mucus from the nasal passages (number of animals)” value in test [2] turned out to be 5. In addition, the “Infectious titer of the virus” value in the test with hRV is 0 ± 0 lg TCID50. The results for the “Bacterial growth, in %” value in the test with Staphylococcus aureus (15 mg/kg orally) and in the test on Staphylococcus aureus (30 mg/kg orally) were 55% and 50 (sporadic colonies (up to 100)), respectively.
`CC(C)N(CCc1cnc[nH]1)C(=O)CCCC(=O)O` [Compound 141]: the mortality at 30 mg/kg came out at 35% in test [1] and 40% in test [3]. Besides, the “Mucous membrane of nasal passages: Without changes (number of animals)” value in test [2] turned out to be 4. Also, the “Mucous membrane of nasal passages: Discharge mucus from the nasal passages (number of animals)” value in test [2] is 6. In addition, in the test with hRV, the “Infectious titer of the virus” value turned out to be 0 ± 0 lg TCID50. Also, the “Bacterial growth, in %” value with Staphylococcus aureus (15 mg/kg orally) is 55%; in the test on Staphylococcus aureus (30 mg/kg orally) it was 40%.
Turning to `O=C(O)CCCC(=O)NCCc1nc2ccccc2s1` [Compound 275], the mortality at 30 mg/kg in test [1] and in test [3] was 40% in each case. Besides, in test [2], the “Mucous membrane of nasal passages: Without changes (number of animals)” value worked out at 3. Besides, the “Mucous membrane of nasal passages: Discharge mucus from the nasal passages (number of animals)” value in test [2] is listed as 7. Moreover, in the test on hRV, the “Infectious titer of the virus” value was 0.45 ± 0.1 lg TCID50. The “Bacterial growth, in %” value is listed as 35% with Staphylococcus aureus (15 mg/kg orally) and 40% with Staphylococcus aureus (30 mg/kg orally).
In the case of `CC(Cc1cnc[nH]1)NC(=O)CCCC(=O)O` (stereo not drawn) [Compound 115], the mortality at 30 mg/kg in test [1] and in test [3] was 30% throughout. For the same compound, in test [2], the “Mucous membrane of nasal passages: Without changes (number of animals)” value was found to be 3. For the same compound, the “Mucous membrane of nasal passages: Discharge mucus from the nasal passages (number of animals)” value in test [2] amounted to 7. Besides, in the test with hRV, the “Infectious titer of the virus” value was 0.05 ± 0.05 lg TCID50. The “Bacterial growth, in %” value in the test on Staphylococcus aureus (15 mg/kg orally) is 55%; in the test on Staphylococcus aureus (30 mg/kg orally), 25 (sporadic colonies (up to 10)).
Turning to `O=C(O)CCCC(=O)NCCCc1cccs1` [Compound 34], the figures for the mortality at 30 mg/kg in test [1] and in test [3] were 45% and 15%, respectively. Further, the “Mucous membrane of nasal passages: Without changes (number of animals)” value in test [2] worked out at 3. The “Mucous membrane of nasal passages: Discharge mucus from the nasal passages (number of animals)” value in test [2] was found to be 7. The “Infectious titer of the virus” value in the test with hRV is reported as 0.5 ± 0.20 lg TCID50. The “Bacterial growth, in %” value in the test on Staphylococcus aureus (15 mg/kg orally) is 25 (sporadic colonies (up to 10)); with Staphylococcus aureus (30 mg/kg orally) it was 50 (sporadic colonies (up to 100)).
Consider `O=C(O)CCCC(=O)NC(Cc1c[nH]cn1)C(=O)O` (stereo not drawn) [Compound 251], for which the mortality at 30 mg/kg in test [1] stood at 30%; in test [3] it was 35%. Moreover, the “Mucous membrane of nasal passages: Without changes (number of animals)” value in test [2] stood at 4. The “Mucous membrane of nasal passages: Discharge mucus from the nasal passages (number of animals)” value in test [2] is 6. In addition, the “Infectious titer of the virus” value in the test with hRV is reported as 0 ± 0 lg TCID50. Further, the results for the “Bacterial growth, in %” value with Staphylococcus aureus (15 mg/kg orally) and with Staphylococcus aureus (30 mg/kg orally) were 55% and 20%, respectively.
For `Cc1csc(CCNC(=O)CCCC(=O)O)n1` [Compound 197], the results for the mortality at 30 mg/kg in test [1] and in test [3] were 45% and 25%, respectively. Moreover, the “Mucous membrane of nasal passages: Without changes (number of animals)” value in test [2] is 6. In addition, the “Mucous membrane of nasal passages: Discharge mucus from the nasal passages (number of animals)” value in test [2] is reported as 4. The “Infectious titer of the virus” value with hRV turned out to be 0.37 ± 0.06 lg TCID50. Moreover, the “Bacterial growth, in %” value turned out to be 45% with Staphylococcus aureus (15 mg/kg orally) and 60% with Staphylococcus aureus (30 mg/kg orally).
